The assay has as its system human hepatoma Huh-7 cell line harboring a HCV replicon. Put plainly: HCV replicon assay (inhibition of viral replication, luciferase readout). Type of assay: cell-based. The note with it: Hepatitis C virus, 72 h, Huh-7 HCV replicon cells, 3 days incubation. Summed up:
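Huh-7 replicon cells were exposed to 10-point 3-fold compound dilutions (0.44% DMSO) for 3 days at 37 °C. Replicon replication was read by Dual-Glo luciferase, with background from protease-inhibitor wells subtracted, and viability by calcein AM. EC50/CC50 came from a Hill-equation fit versus DMSO controls.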
A general note: Replicon systems follow genome replication, usually without infectious particles.
`CC(C)(C)C#Cc1cc(N(C(=O)[C@H]2CC[C@H](C)CC2)[C@H]2CC[C@H](Oc3ccc(=O)[nH]n3)CC2)c(C(=O)O)s1` [Compound 14, 5-(3,3-Dimethyl-but-1-ynyl)-3-{(trans-4-methyl-cyclohexanecarbonyl)-[trans-4-(6-oxo-1,6-dihydropyridazin-3-yloxy)-cyclohexyl]-amino}-thiophene-2-carboxylic acid] yielded an inhibition at 2 µM of 100%.

`CN(C)C1CCN(C(=O)c2ccnc(O[C@H]3CC[C@H](N(c4cc(C#CC(C)(C)C)sc4C(=O)O)C(=O)[C@H]4CC[C@H](C)CC4)CC3)c2)C1` (stereo partly drawn) [Compound 169, Sodium 3-(N-(4-(4-(3-(dimethylamino)pyrrolidine-1-carbonyl)pyridin-2-yloxy)cyclohexyl)-4-methylcyclohexanecarboxamido)-5-(3,3-dimethylbut-1-ynyl)thiophene-2-carboxylate] returned an inhibition at 2 µM of 100%.

Take `CN(C)c1cc(O[C@H]2CC[C@H](N(c3cc(C#CC(C)(C)C)sc3C(=O)O)C(=O)[C@H]3CC[C@H](C)CC3)CC2)ncn1` [Compound 158, 3-(N-(4-(6-(Dimethylamino)pyrimidin-4-yloxy)cyclohexyl)-4-methylcyclohexanecarboxamido)-5-(3,3-dimethylbut-1-ynyl)thiophene-2-carboxylic acid]: testing at 2 µM gave an inhibition of 99.9%.

For `CC(C)(C)C#Cc1cc(N(C(=O)[C@H]2CC[C@H](C)CC2)[C@H]2CC[C@H](Oc3ccnnc3)CC2)c(C(=O)O)s1` [Compound 185, 5-(3,3-Dimethylbut-1-ynyl)-3-(4-methyl-N-(4-(pyridazin-4-yloxy)cyclohexyl)cyclohexanecarboxamido)thiophene-2-carboxylic acid], the inhibition at 2 µM was determined as 84.7%.

For `Cc1nc(S(=O)(=O)N2CCC(N(c3cc(C#CC(C)(C)C)sc3C(=O)O)C(=O)[C@H]3CC[C@H](C)CC3)CC2)cn1C` [Compound 206, 5-(3,3-Dimethyl-but-1-ynyl)-3-[[1-(1,2-dimethyl-1H-imidazole-4-sulfonyl)-piperidin-4-yl]-(4-methyl-cyclohexanecarbonyl)-amino]-thiophene-2-carboxylic acid], at 2 µM the inhibition was 100%.

The molecule `CC(C)(C)C#Cc1cc(N(C(=O)[C@H]2CC[C@H](C)CC2)C2CCN(S(=O)(=O)c3cnc(=O)[nH]c3)CC2)c(C(=O)O)s1` [Compound 208, 5-(3,3-Dimethyl-but-1-ynyl)-3-{(4-methyl-cyclohexanecarbonyl)-[1-(2-oxo-1,2-dihydro-pyrimidine-5-sulfonyl)-piperidin-4-yl]-amino}-thiophene-2-carboxylic acid] displayed an inhibition at 2 µM of 63.8%.

Regarding `Cn1nnnc1S[C@H]1CC[C@@H](N(c2cc(C#CC(C)(C)C)sc2C(=O)O)C(=O)[C@H]2CC[C@H](C)CC2)CC1` [Compound 104, 5-(3,3-Dimethylbut-1-ynyl)-3-(4-methyl-N-(4-(1-methyl-1H-tetrazol-5-ylthio)cyclohexyl)cyclohexanecarboxamido)thiophene-2-carboxylic acid], 2 µM produced 98.7% inhibition.

The molecule `CC(C)(C)C#Cc1cc(N(C(=O)[C@H]2CC[C@H](C)CC2)[C@H]2CC[C@@H](Sc3ncccn3)CC2)c(C(=O)O)s1` [Compound 108, 5-(3,3-Dimethylbut-1-ynyl)-3-(4-methyl-N-(4-(pyrimidin-2-ylthio)cyclohexyl)cyclohexanecarboxamido)thiophene-2-carboxylic acid] displayed an inhibition at 2 µM of 99.3%.

Molecule `CCOc1cc(OCC[C@H](C)N(c2cc(C#CC(C)(C)C)sc2C(=O)O)C(=O)[C@H]2CC[C@H](C)CC2)c2ccc(OC)c(C)c2n1` [Compound 144, 5-(3,3-dimethyl-but-1-ynyl)-3-[[3-(2-ethoxy-7-methoxy-8-methyl-quinolin-4-yloxy)-1-(S)-methyl-propyl]-(4-methyl-cyclohexanecarbonyl)-amino]-thiophene-2-carboxylic acid] came in with an inhibition at 2 µM of 95.4%.

For orientation: inhibition means the change of the read-out against control, counted positive when it falls. The low end stands for a weak effect, the high end for a strong effect.

The record behind these values is patent publication US8569302B2, “Inhibitors of flaviviridae viruses” (Gilead Sciences, Inc., priority 2009, dated 2013).
